# Source: article PMC10979003, “Development and crystal structures of a potent second-generation dual degrader of BCL-2 and BCL-xL” (Nature Communications, 2024)
# Assays:
# HiBiT-BCL-xL = target: T1, HiBiT-BCL-xL (Homo sapiens, UniProt Q07817); assay: HiBiT degradation assay, HiBiT knock-in BCL-xL HeLa cells; format: cell-based
# T1 construct: endogenous in cells; host or cells: HeLa (ATCC CCL-2), CRISPR-Cas9 HiBiT knock-in clone
# Protocol: The Alt-R CRISPR RNA (crRNA):Alt-R trans-activating crRNA (tracrRNA) duplexes for targeting BCL-xL or BCL-2 were prepared by mixing 0.5 nmol crRNA and 0.5 nmol tracrRNA in 25 μL of Nuclease-Free Duplex Buffer (Integrated DNA Technologies, IDT) by incubation at 95 °C for 5 min and cooling to RT. Single-stranded ultramer DNA oligonucleotides (ssODN) (IDT) were used as the homology directed repair (HDR) donor templates. The sequences of gRNAs and ssODN templates are listed in Supplementary Table 2. Ribonucleoprotein (RNP) complexes with recombinant Streptococcus pyogenes Cas9 protein (IDT) and crRNA:tracrRNA duplex were assembled by incubating 100 pmol of Cas9 and 120 pmol of gRNA for 10–20 min at room temperature. HeLa (2 × 10^5) cells were resuspended in 10 μL of Neon^TM transfection system buffer R from the Neon^TM transfection system 10 mL kit (Thermo Fisher), and the RNP complex along with 100 pmol ssODN template were electroporated into HeLa cells with the Neon^TM transfection system (Thermo Fisher). After electroporation, HeLa cells were transferred to a 12-well plate for culturing. Edited pooled cells were analyzed for HiBiT insertion by assaying for luminescence using Nano-Glo® HiBiT lytic detection system (Cat #N3040, Promega) in a Biotek’s Synergy Neo2 multimode plate reader (Biotek) 48–72 h after electroporation and single clones were selected by serial dilution.
# HeLa HiBiT-BCL-xL and HeLa HiBiT-BCL-2 cells (2 × 10^4/well in 80 μL DMEM) were seeded into white 96-well tissue culture plates and incubated overnight at 37 °C, 5% CO2. For dose curve testing, the following day, serial diluted compounds were added into the medium and then plates were incubated at 37 °C, 5% CO2, for 6 h. For time course testing, in the following day, compounds with indicated concentrations were added into the medium at different time points. After treatment, the luminescence signals were measured using Nano-Glo® HiBiT lytic detection system (Cat #N3040, Promega) in a Biotek’s Synergy Neo2 multimode plate reader (Biotek).
# Jurkat cells = assay: TMT-based proteomics in Jurkat cells; format: cell-based, human; settings: 100 nM, 8 h
# Protocol: To further assess the cellular selectivity of 753b and WH244 for BCL-xL/BCL-2 proteins, multiplexed tandem mass tag (TMT) labeling mass spectrometry proteomic experiments were performed to monitor protein levels in an unbiased fashion. Jurkat cells were treated in triplicate with DMSO, 100 nM 753b or 100 nM WH244 for 8 h (Supplementary Fig. 10b). […] To assess BCL-xL and BCL-2 degradation, we utilized western blotting with the same samples, and successfully verified the degradation of both BCL-xL and BCL-2 proteins induced by 753b and WH244, respectively (Supplementary Fig. 10c). We speculate that these apparently contradictory results may be attributable to some of the limitations of TMT technology, where low TMT-labeling efficiency for some proteins and peptides, can lead to inability to detect these proteins by TMT-based proteomics analysis. This limitation has been observed in several other reported PROTAC studies[52],[53]. […]
# Proteins were identified and MS3 reporter ions quantified using MaxQuant (version 2.2.0.0; Max Planck Institute) against the Homo sapiens UniprotKB database (March 2023) with a parent ion tolerance of 3 ppm, a fragment ion tolerance of 0.5 Da, and a reporter ion tolerance of 0.003 Da. […] Protein TMT MS3 reporter ion intensity values were assessed for quality using ProteiNorm for a systematic evaluation of normalization methods. […]
# [1] = test system: H146 small cell lung cancer cells; assay: Cytotoxicity in H146 SCLC cells in vitro; format: cell-based; settings: Figure R4
# T1 sequence (Q07817 whole entry): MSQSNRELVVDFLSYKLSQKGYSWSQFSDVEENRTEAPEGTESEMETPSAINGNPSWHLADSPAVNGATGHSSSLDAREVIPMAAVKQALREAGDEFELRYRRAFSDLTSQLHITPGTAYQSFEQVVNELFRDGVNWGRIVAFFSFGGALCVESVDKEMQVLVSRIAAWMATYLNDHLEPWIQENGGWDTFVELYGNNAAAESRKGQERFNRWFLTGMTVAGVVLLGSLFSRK
SMILES,Time to degrade 50% of BCL-xL (HiBiT-BCL-xL; 10 nM compound),Time to degrade 50% of BCL-xL (HiBiT-BCL-xL; 100 nM compound),Proteins significantly down-regulated among approximately 6000 identified (Jurkat cells),Potency for inducing degradation of BCL-xL (comparison) (HiBiT-BCL-xL; 6 h treatment),"Potency against H146 cells (comparison with ABT263, DT2216, 753b) [1]"
Cc1ncsc1-c1ccc(C(C)NC(=O)C2CC(O)CN2C(=O)C(NC(=O)CCCCCCC(=O)N2CCN(CC3(C)CCC(c4ccc(Cl)cc4)=C(CN4CCN(c5ccc(C(=O)NS(=O)(=O)c6ccc(NC(CCN7CCOCC7)CSc7ccccc7)c(S(=O)(=O)C(F)(F)F)c6)cc5)CC4)C3)CC2)C(C)(C)C)cc1 (centres unmarked) [753b],> 480 min,~ 84 min,none of which exhibited significant down-regulation,,
Cc1ncsc1-c1ccc([C@H](C)NC(=O)[C@@H]2C[C@@H](O)CN2C(=O)[C@@H](NC(=O)CN2CCN(CC(=O)N3CCN(C[C@]4(C)CCC(c5ccc(Cl)cc5)=C(CN5CCN(c6ccc(C(=O)NS(=O)(=O)c7ccc(N[C@H](CCN8C[C@@H]9C[C@H]8CO9)CSc8ccccc8)c(S(=O)(=O)C(F)(F)F)c7)cc6)CC5)C4)CC3)CC2)C(C)(C)C)cc1 [WH244],~ 219 min,~ 45 min,none of which exhibited significant down-regulation,more potent than 753b,most potent
